Source: patent publication US8772277B2, “Nitrogen-containing heterocyclic compound” (Takeda Pharmaceutical Company Limited, priority 2011, dated 2014)
Counter-ions that a name gives are not always drawn.

Key:
[1] = biological target: T1, GST-ERR-α ligand-binding domain (Homo sapiens, UniProt P11474); experiment: HTRF assay system using ERR-α ligand-binding domain (inverse agonist activity, biotinylated SRC-1 (676-700) peptide); assay type: biochemical; details: compound final concentration 30 μM, 665/620 ratio, no compound = 0%, 10 μM XCT-790 = 100%
T1 sequence (P11474 193-421 limits assumed): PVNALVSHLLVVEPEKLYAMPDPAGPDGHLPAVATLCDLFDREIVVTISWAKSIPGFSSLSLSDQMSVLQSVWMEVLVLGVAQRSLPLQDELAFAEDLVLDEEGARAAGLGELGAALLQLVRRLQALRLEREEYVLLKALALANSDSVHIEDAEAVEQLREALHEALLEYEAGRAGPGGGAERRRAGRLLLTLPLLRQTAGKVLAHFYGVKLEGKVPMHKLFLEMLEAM
Method: Experimental Example 1 Compound Evaluation in HTRF Assay System Using ERR-α Ligand-Binding Domain
An assay buffer (25 mM HEPES, 100 mM NaCl, 1 mM DTT, 0.1% BSA) containing 5 nM GST-ERR-α ligand-binding domain (final concentration 1.25 nM) was added to a 384 well plate, then 40 μM N-[5-(trifluoromethyl)-1,3,4-thiadiazol-2-yl]-2-cyano-3-[3-methoxy-4-[2,4-di(trifluoromethyl)benzyloxy]phenyl]propenamide (XCT-790) (final concentration 10 μM), or 120 μM compound (final concentration 30 μM) was added. Furthermore, an assay buffer containing XL665 conjugated Streptavidin, Eu^3+ criptate conjugated GST antibody and 200 nM biotinylated SRC-1 (676-700) (final concentration 100 nM) was added, and the mixture was reacted at room temperature for 2 hr. Using Multiplate reader Envision (Perkin Elmer Inc.), after excitation at 320 nm, fluorescence values at 620 nm and 665 nm were measured. The inverse agonist activity of the compound was calculated in percentage with the 665/620 ratio value inhibited by no addition of compound as 0%, and with addition of final concentration 10 μM of XCT-790 as 100%.

[2] = biological target: T2, fusion protein containing GAL4-DNA-binding domain and ERR full-length (Homo sapiens, UniProt P11474); experiment: Reporter assay system using 293T cells (GAL4-ERR luciferase, inverse agonist activity); assay type: cell-based; details: compound final concentration 3 μM, no compound = 0%, 10 μM XCT-790 = 100%
T2 construct: expressed in transfected cells; host or cells: 293T cells
T2 sequence (P11474 1-423): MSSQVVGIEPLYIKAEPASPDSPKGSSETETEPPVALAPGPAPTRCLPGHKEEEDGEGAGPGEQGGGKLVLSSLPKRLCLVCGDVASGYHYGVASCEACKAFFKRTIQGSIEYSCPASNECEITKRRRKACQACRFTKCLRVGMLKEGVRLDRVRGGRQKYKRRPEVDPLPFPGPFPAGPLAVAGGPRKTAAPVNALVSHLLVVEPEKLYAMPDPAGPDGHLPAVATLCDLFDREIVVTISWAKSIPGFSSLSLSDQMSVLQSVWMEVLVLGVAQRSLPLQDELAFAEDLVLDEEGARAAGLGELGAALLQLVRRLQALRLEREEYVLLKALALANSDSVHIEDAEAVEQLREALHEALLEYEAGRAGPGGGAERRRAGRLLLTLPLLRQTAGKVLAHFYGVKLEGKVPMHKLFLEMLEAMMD
Method: Experimental Example 2 Compound Evaluation in Reporter Assay System Using 293T Cells
293T cells derived from human kidney were seeded in a 150 cm^2 flask by 6,000,000 cells, and cultured in a medium (DMEM medium containing 10% inactivated Fetal Bovine Serum sterile filtered (FBS), […] Gentamicin, 10 mM HEPES buffer (pH 7.4)) at 37° C. in the presence of 5% CO2 for 1 day.
Then, vector DNA having a gene encoding a fusion protein, containing GAL4-DNA-binding domain and ERR full-length and a vector DNA wherein luciferase gene is fused at the downstream of GAL4-binding-sequence were cotransfected by a lipofection method, and the cells were cultured at 37° C. in the presence of 5% CO2 for 1 day. The cells were recovered, sown in a 384 well plate by 15,000 cells, and cultured at 37° C. in the presence of 5% CO2 for 3 hrs. Furthermore, 50 μM N-[5-(trifluoromethyl)-1,3,4-thiadiazol-2-yl]-2-cyano-3-[3-methoxy-4-[2,4-di(trifluoromethyl)benzyloxy]phenyl]propenamide (XCT-790) (final concentration 10 μM) or 15 μM compound (final concentration 3 μM) was added, and the cells were cultured at 37° C. in the presence of 5% CO2 for 1 day. The luciferase activity was measured by using multiplate reader Envision (Perkin Elmer Inc.). The inverse agonist activity of the compound was calculated in percentage with the luciferase activity inhibited by no addition of compound as 0%, and with addition of final concentration 10 μM of XCT-790 as 100%.

MDA-MB-231-luc cells = experiment: Antitumor test using MDA-MB-231-luc cells (subcutaneous transplant); assay type: in vivo, Balb/c nu/nu mice; details: 50 mg/kg orally twice per day, change in tumor volume, vehicle group = 100%
Method: Experimental Example 3 Antitumor Test using MDA-MB-231-luc Cells
6-Week-old Balb/c nu/nu mice were transplanted subcutaneously with 5×10^6 cells/100 μL, and the mice were grouped according to the body weight and tumor volume after 1 to 2 weeks. Vehicle (0.5% MC) or a compound was administered orally to mice (6 mice per group). The administration was twice per day and performed continuously during the dosing period. Setting the change in tumor volume of the vehicle-treated group as 100%, the change rate in tumor volume of the compound-treated group (□/C %) was calculated.

SMILES	inhibition at 30 µM ([1]; read-out: inhibition rate (%) at 30 μM) [%]	inhibition at 3 µM ([2]; HEK-293T, read-out: inhibition rate (%) at 3 μM) [%]	T/C (%) (MDA-MB-231-luc cells; dosing period 14 days)	inhibition rate (%) at 30 μM ([1]; hydrochloride) [%]	inhibition rate (%) at 3 μM ([2]; hydrochloride) [%]	T/C (%) (MDA-MB-231-luc cells; dosing period 17 days)
CN(C)C(=O)[C@@H](CO)NC1=NC(=O)S/C1=C\C1CCN(Cc2ccc(C(F)(F)F)cc2C(F)(F)F)CC1 [Example 115, N^2-[(5Z)-5-({1-[2,4-bis(trifluoromethyl)benzyl]piperidin-4-yl}methylidene)-2-oxo-2,5-dihydro-1,3-thiazol-4-yl]-N,N-dimethyl-D-serinamide]	99	90	55	–	–	–
O=C1N=C(NCCOCCO)/C(=C/C2CCN(Cc3ccc(C(F)(F)F)cc3C(F)(F)F)CC2)S1 [Example 195, (5Z)-5-({1-[2,4-bis(trifluoromethyl)benzyl]piperidin-4-yl}methylidene)-4-{[2-(2-hydroxyethoxy)ethyl]amino}-1,3-thiazol-2(5H)-one hydrochloride]	–	–	–	102	90	56
